Measured values reported in ChEMBL document CHEMBL5252561, “Evaluation of darunavir-derived HIV-1 protease inhibitors incorporating P2' amide-derivatives: Synthesis, biological evaluation and structural studies” (Bioorg Med Chem Lett, 2023).

Tests used:
[1] = target: Human immunodeficiency virus type 1 protease (Human immunodeficiency virus 1, UniProt Q72874); test: Inhibition of HIV-1 protease using Abz-NF-6 as substrate assessed as inhibition constant measured every 2 mins for 20 mins by fluorescence based […] analysis
[2] = system: Human immunodeficiency virus; test: Antiviral activity against HIV LAI infected in human MT-2 cells assessed as inhibition of viral growth; assay type: functional, organism-based; conditions: Human immunodeficiency virus 1, LAI, MT2
[3] = system: Human immunodeficiency virus; test: Potency index, ratio of test compound IC50 to darunavir IC50 for antiviral activity against HIV LAI infected in human MT-2 cells assessed as inhibition of viral growth; assay type: functional, MT2

Structure (SMILES)	Ki [1] [nM]	IC50 [2] [nM]	Ratio IC50 [3]
CC(C)CN(C[C@@H](O)[C@H](Cc1ccccc1)NC(=O)O[C@H]1CO[C@H]2OCC[C@H]21)S(=O)(=O)c1ccc(NC(=O)CN)cc1	0.0921		
CCNCC(=O)Nc1ccc(S(=O)(=O)N(CC(C)C)C[C@@H](O)[C@H](Cc2ccccc2)NC(=O)O[C@H]2CO[C@H]3OCC[C@H]32)cc1	0.0091	280	
CC(C)CN(C[C@@H](O)[C@H](Cc1ccccc1)NC(=O)O[C@H]1CO[C@H]2OCC[C@H]21)S(=O)(=O)c1ccc(NC(=O)[C@@H](N)C(C)C)cc1	0.445	25	
CC(C)CN(C[C@@H](O)[C@H](Cc1ccccc1)NC(=O)O[C@H]1CO[C@H]2OCC[C@H]21)S(=O)(=O)c1ccc(NC(=O)CN(C)C)cc1	0.0015	> 1000	
CC(C)CN(C[C@@H](O)[C@H](Cc1ccccc1)NC(=O)O[C@H]1CO[C@H]2OCC[C@H]21)S(=O)(=O)c1ccc(C(=O)O)cc1		> 1000	
CC(C)CN(C[C@@H](O)[C@H](Cc1ccccc1)NC(=O)O[C@H]1CO[C@H]2OCC[C@H]21)S(=O)(=O)c1ccc(NC(=O)[C@@H](NC(=O)OC(C)(C)C)C(C)C)cc1	178	540	
CC(C)CN(C[C@@H](O)[C@H](Cc1ccccc1)NC(=O)O[C@H]1CO[C@H]2OCC[C@H]21)S(=O)(=O)c1ccc(NC(=O)CCl)cc1	0.0044	32	
CC(C)CN(C[C@@H](O)[C@H](Cc1ccccc1)NC(=O)O[C@H]1CO[C@H]2OCC[C@H]21)S(=O)(=O)c1ccc(N)cc1		1.6	
CC(=O)Nc1ccc(S(=O)(=O)N(CC(C)C)C[C@@H](O)[C@H](Cc2ccccc2)NC(=O)O[C@H]2CO[C@H]3OCC[C@H]32)cc1	0.0006	29	10
CC(C)CN(C[C@@H](O)[C@H](Cc1ccccc1)NC(=O)O[C@H]1CO[C@H]2OCC[C@H]21)S(=O)(=O)c1ccc(NC(=O)CNC(C)C)cc1	0.388	31	
CCN(CC)CC(=O)Nc1ccc(S(=O)(=O)N(CC(C)C)C[C@@H](O)[C@H](Cc2ccccc2)NC(=O)O[C@H]2CO[C@H]3OCC[C@H]32)cc1	0.302	> 1000	
CC(C)CN(C[C@@H](O)[C@H](Cc1ccccc1)NC(=O)O[C@H]1CO[C@H]2OCC[C@H]21)S(=O)(=O)c1ccc(NC(=O)CN[C@H](C)c2ccccc2)cc1	0.0053	39	
CC(C)CN(C[C@@H](O)[C@H](Cc1ccccc1)NC(=O)O[C@H]1CO[C@H]2OCC[C@H]21)S(=O)(=O)c1ccc(NC(=O)CNC(=O)OC(C)(C)C)cc1	310		
CC(C)CN(C[C@@H](O)[C@H](Cc1ccccc1)NC(=O)O[C@H]1CO[C@H]2OCC[C@H]21)S(=O)(=O)c1ccc(NC(=O)[C@H](NC(=O)OC(C)(C)C)C(C)C)cc1	337	430	
CC(C)CN(C[C@@H](O)[C@H](Cc1ccccc1)NC(=O)O[C@H]1CO[C@H]2OCC[C@H]21)S(=O)(=O)c1ccc(C(N)=O)cc1		93	
